In paper PMC12564265, “Navigating the Deep Eutectic Solvent Landscape: Experimental and Machine Learning Solubility Explorations of Syringic, p-Coumaric, and Caffeic Acids” (International Journal of Molecular Sciences, 2025):

Legend:
[1] = Shake-flask solubility with spectrophotometric measurement in aqueous DES mixtures; format: physicochemical
Protocol: (§1) In order to determine the solubility of the three studied phenolic acids in deep eutectic solvents, a very well-established shake-flask method coupled with spectrophotometric measurements was utilized. The initial procedure involved the preparation of various DESs, which was conducted by mixing their HBA and HBD counterparts in a glass vessel and heating the composition until the formation of a transparent, uniform liquid. […] For additional measurements, the DESs were mixed with water in varying proportions, creating aqueous DES systems. Saturated solutions of CAF, SYR, and COU were obtained by adding excess amounts of these compounds to test tubes containing either a neat deep eutectic solvent or its aqueous solution. Such samples were placed in the Orbital Shaker Incubator ES-20/60 from Biosan (Riga, Latvia) and heated for 24 h at 25 °C, 30 °C, 35 °C, and 40 °C (±0.1 °C) with simultaneous mixing at 60 rpm. Before measurements, the samples were filtered using a PTFE syringe filter from Qpore (Dallas, TX, USA) with a 0.22 μm pore size. In order to avoid possible precipitation of the saturated solutions at decreased temperatures, the test tubes, syringes, pipette tips, and filters were kept at a temperature identical to that of the samples. The spectrophotometric measurements required the preparation of calibration curves for the three APIs. This involved the preparation of a stock solution of each compound in methanol, which was later successfully diluted, and the obtained solutions of varying concentrations were measured using an A360 spectrophotometer from AOE Instruments (Shanghai, China). The wavelength range was set to 200-500 nm, and the resolution was 1 nm. The analytical wavelengths were determined to be 324 nm for caffeic acid, 273 nm for syringic acid, and 308 nm for p-coumaric acid. The final regression equations, obtained after averaging three distinct sets of measurements, are collected in Table 2 together with determination coefficients and limits of detection (LOD) and quantification (LOQ) for the calibration curves. The measurements of the samples were conducted with the same spectrophotometer and identical settings. Methanol was used for the dilution of the samples so that they could remain within the linearity range of the method. Complete spectra of the samples were recorded, but for the solubility determination, the absorbance values at a specific analytical wavelength were considered. These values were combined with the corresponding regression equations of the calibration curves and served for the calculation of the concentration of the three phenolic acids in the studied samples. The densities of such samples were also measured, and for this task 1 mL of each sample was weighed to a precision of 0.1 mg using an AS 110 R2.PLUS analytical balance from […] (Radom, Poland). The obtained densities enabled the calculation of mole fractions of CAF, SYR, and COU dissolved in the studied DESs. For each considered system, three distinct measurements were conducted, and the results were averaged.

[2] = Shake-flask solubility with spectrophotometric measurement in neat deep eutectic solvents; format: physicochemical
Protocol: as §1

- Mole fraction solubility ([1]; ChCl – TEG 1:2 + water, x*DES 0.3, 40°C): 0.0476±0.0003 mole fraction
- Mole fraction solubility ([1]; ChCl – TEG 1:2 + water, x*DES 0.4, 25°C): 0.0254±0.0003 mole fraction
- Mole fraction solubility ([1]; ChCl – TEG 1:2 + water, x*DES 0.4, 30°C): 0.0347±0.0004 mole fraction
- Mole fraction solubility ([1]; ChCl – TEG 1:2 + water, x*DES 0.4, 35°C): 0.0466±0.0004 mole fraction
- Mole fraction solubility ([1]; ChCl – TEG 1:2 + water, x*DES 0.4, 40°C): 0.0643±0.0006 mole fraction
- Mole fraction solubility ([1]; ChCl – TEG 1:2 + water, x*DES 0.5, 25°C): 0.0324±0.0002 mole fraction
- Mole fraction solubility ([1]; ChCl – TEG 1:2 + water, x*DES 0.5, 30°C): 0.0446±0.0004 mole fraction
- Mole fraction solubility ([1]; ChCl – TEG 1:2 + water, x*DES 0.5, 35°C): 0.0618±0.0006 mole fraction
- Mole fraction solubility ([1]; ChCl – TEG 1:2 + water, x*DES 0.5, 40°C): 0.0822±0.0010 mole fraction
- Mole fraction solubility ([1]; ChCl – TEG 1:2 + water, x*DES 0.6, 25°C): 0.0401±0.0004 mole fraction
- Mole fraction solubility ([1]; ChCl – TEG 1:2 + water, x*DES 0.6, 30°C): 0.0524±0.0005 mole fraction
- Mole fraction solubility ([1]; ChCl – TEG 1:2 + water, x*DES 0.6, 35°C): 0.0731±0.0007 mole fraction
- Mole fraction solubility ([1]; ChCl – TEG 1:2 + water, x*DES 0.6, 40°C): 0.0992±0.0012 mole fraction
- Mole fraction solubility ([1]; ChCl – TEG 1:2 + water, x*DES 0.7, 25°C): 0.0475±0.0003 mole fraction
- Mole fraction solubility ([1]; ChCl – TEG 1:2 + water, x*DES 0.7, 30°C): 0.0628±0.0004 mole fraction
- Mole fraction solubility ([1]; ChCl – TEG 1:2 + water, x*DES 0.7, 35°C): 0.0871±0.0005 mole fraction
- Mole fraction solubility ([1]; ChCl – TEG 1:2 + water, x*DES 0.7, 40°C): 0.1214±0.0012 mole fraction
- Mole fraction solubility ([1]; ChCl – TEG 1:2 + water, x*DES 0.8, 25°C): 0.0541±0.0003 mole fraction
- Mole fraction solubility ([1]; ChCl – TEG 1:2 + water, x*DES 0.8, 30°C): 0.0699±0.0006 mole fraction
- Mole fraction solubility ([1]; ChCl – TEG 1:2 + water, x*DES 0.8, 35°C): 0.1009±0.0006 mole fraction
- Mole fraction solubility ([1]; ChCl – TEG 1:2 + water, x*DES 0.8, 40°C): 0.1351±0.0013 mole fraction
- Mole fraction solubility ([1]; ChCl – TEG 1:2 + water, x*DES 0.9, 25°C): 0.0550 mole fraction
- Mole fraction solubility ([1]; ChCl – TEG 1:2 + water, x*DES 0.9, 25°C, listed as syryngic acid): 0.0550±0.0005 mole fraction
- Mole fraction solubility ([1]; ChCl – TEG 1:2 + water, x*DES 0.9, 30°C): 0.0718±0.0005 mole fraction
- Mole fraction solubility ([1]; ChCl – TEG 1:2 + water, x*DES 0.9, 35°C): 0.1018±0.0008 mole fraction
- Mole fraction solubility ([1]; ChCl – TEG 1:2 + water, x*DES 0.9, 40°C): 0.1373±0.0011 mole fraction
- Mole fraction solubility ([1]; ChCl – TEG 1:2, x*DES 1.0 (neat DES), 25°C): 0.0515±0.0004 mole fraction
- Mole fraction solubility ([1]; ChCl – TEG 1:2, x*DES 1.0 (neat DES), 30°C): 0.0660±0.0003 mole fraction
- Mole fraction solubility ([1]; ChCl – TEG 1:2, x*DES 1.0 (neat DES), 35°C): 0.0917±0.0006 mole fraction
- Mole fraction solubility ([1]; ChCl – TEG 1:2, x*DES 1.0 (neat DES), 40°C): 0.1234±0.0013 mole fraction
- Increase in the solubility compared to the neat DES ([1]; ChCl-TEG 1:2, x*DES = 0.9 (xwater = 0.1), 25 °C): 7%
- Solubility increase between 25 °C and 40 °C ([1]; neat DES (x*DES = 1.0) involving betaine (Bet-TEG 1:2)): 164%
- Solubility increase between 25 °C and 40 °C ([1]; neat DES (x*DES = 1.0) with choline chloride (ChCl-TEG 1:2)): 240%
- Mole fraction solubility ([2]; neat DES Bet - DEG, HBA:HBD molar ratio 1:1, 25 °C): 0.0235±0.0003 mole fraction
- Mole fraction solubility ([2]; neat DES Bet - DEG, HBA:HBD molar ratio 1:2, 25 °C): 0.0311±0.0002 mole fraction
- Mole fraction solubility ([2]; neat DES Bet - DEG, HBA:HBD molar ratio 1:4, 25 °C): 0.0283±0.0003 mole fraction
- Mole fraction solubility ([2]; neat DES Bet - ETG, HBA:HBD molar ratio 1:1, 25 °C): 0.0132±0.0001 mole fraction
- Mole fraction solubility ([2]; neat DES Bet - ETG, HBA:HBD molar ratio 1:2, 25 °C): 0.0274±0.0002 mole fraction
- Mole fraction solubility ([2]; neat DES Bet - ETG, HBA:HBD molar ratio 1:4, 25 °C): 0.0205±0.0002 mole fraction
- Mole fraction solubility ([2]; neat DES Bet - GLY, HBA:HBD molar ratio 1:1, 25 °C): 0.0203±0.0002 mole fraction
- Mole fraction solubility ([2]; neat DES Bet - GLY, HBA:HBD molar ratio 1:2, 25 °C): 0.0358±0.0003 mole fraction
- Mole fraction solubility ([2]; neat DES Bet - GLY, HBA:HBD molar ratio 1:4, 25 °C): 0.0300±0.0002 mole fraction
- Mole fraction solubility ([2]; neat DES Bet - TEG, HBA:HBD molar ratio 1:1, 25 °C): 0.0317±0.0003 mole fraction
- Mole fraction solubility ([2]; neat DES Bet - TEG, HBA:HBD molar ratio 1:2, 25 °C): 0.0474 mole fraction
- Mole fraction solubility ([2]; neat DES Bet - TEG, HBA:HBD molar ratio 1:2, 25 °C, listed as syryngic acid): 0.0474±0.0003 mole fraction
- Mole fraction solubility ([2]; neat DES Bet - TEG, HBA:HBD molar ratio 1:4, 25 °C): 0.0388±0.0003 mole fraction
- Mole fraction solubility ([2]; neat DES ChCl - DEG, HBA:HBD molar ratio 1:1, 25 °C): 0.0230±0.0004 mole fraction
- Mole fraction solubility ([2]; neat DES ChCl - DEG, HBA:HBD molar ratio 1:2, 25 °C): 0.0465±0.0004 mole fraction
- Mole fraction solubility ([2]; neat DES ChCl - ETG, HBA:HBD molar ratio 1:1, 25 °C): 0.0186±0.0002 mole fraction
- Mole fraction solubility ([2]; neat DES ChCl - ETG, HBA:HBD molar ratio 1:2, 25 °C): 0.0304±0.0002 mole fraction
- Mole fraction solubility ([2]; neat DES ChCl - ETG, HBA:HBD molar ratio 1:4, 25 °C): 0.0244±0.0002 mole fraction
- Mole fraction solubility ([2]; neat DES ChCl - TEG, HBA:HBD molar ratio 1:2, 25 °C): 0.0515 mole fraction
SMILES: COc1cc(C(=O)O)cc(OC)c1O [syringic acid, 4-hydroxy-3,5-dimethoxybenzoic acid]
